Results on one compound are retold here after article PMC5847527, “Identification of a novel 2-oxindole fluorinated derivative as in vivo antitumor agent for prostate cancer acting via AMPK activation” (Scientific Reports, 2018).

What all share (type): cell-based, human
Experiment [1] deals with cleaved Caspase 3 (17 kDa fragment). Put plainly: Cleaved Caspase 3 level by Western blot in prostate cells. The method, then: (§1) Figure 4 Cell Cycle analysis in 8c-treated prostate cancer cells. (A) PC-3 and LNCaP cells were treated with compound 8c for 24 hours and cell cycle analysis was analyzed by flow cytometry using Propidium Iodide (PI). Percentage of cells in subG0, G1, S, and G2/M phases is indicated in the histogram. (B) Levels of Cyclin D1, p-p53, p53, p21 and cleaved Caspase 3 (17 kDa fragment) were determined by Western blot. Upper panel, representative Western blot of two different experiments. β-tubulin (β-Tub) serves as a loading control. […]
(§2) Cyclin D1 activity is modulated by several inhibitors such as p21 which negatively regulate cell cycle progression by interacting with cyclin dependent kinases (cdks). […] To further study the role of compound 8c in cell cycle, we determined the expression of p21, p53 and the levels of cleaved caspase 3 in the prostate cells. P53 was only determined in LNCaP cells since PC-3 cells are p53-negative[40].
(§3) Cells were lysed in Lysis buffer (50 mM Tris pH 7.4, 0.8 M NaCl, 5 mM MgCl2, 0.1% Triton X-100) containing Protease Inhibitor and Phosphatase inhibitor Cocktails (Roche, Basel, Switzerland). Protein concentrations were measured by BioRad™ protein assay kit (Richmond, CA, USA). […] Films were analyzed by densitometry. […]

The test system of a further experiment is AMPK. Put plainly: AMPK and ACC phosphorylation by Western blot in DU145 cells. The following applies: 25 µM, 1 hour. How it is done: Figure 2 Effect of 2-oxindole fluorinated derivatives on AMPK activity in prostate cancer cells. (A) PC-3, DU145 and LNCaP cells were treated with 25 µM of the selected 2-oxindole fluorinated derivatives for 1 hour. Levels of the phosphorylated AMPK (pAMPK), phosphorylated ACC (pACC) and their total forms were determined by Western blot. Upper panel, a representative Western blot of three different experiments. β-tubulin (β-Tub) serves as a loading control. […] Lower panels, densitometric analyses of bands represented as the mean of the ratio pAMPK/AMPK or pACC/ACC ± SD of three different experiments. *p < 0.05 compared with the controls by one-way ANOVA followed by Fisher’s LSD test; ^#p < 0.05 compared with 2-oxindole fluorinated derivates or with the AMPK activators AMP or A769662 by one-way ANOVA followed by Tukey test.
Similar results were obtained although AMPK stimulation by compound 8c was not so strong (Fig. 2A). […]
as §3
In general terms: In western blotting, separated proteins are transferred to a membrane and probed.

The next experiment has as its system p21. Put plainly: p21 level by Western blot in PC-3 and LNCaP cells. How it is done: as §1, §2, §3
For another experiment, the system named is LNCaP cells. Put plainly: Cell cycle analysis by flow cytometry (Propidium Iodide), LNCaP. The following applies: 24 h, 25 μM and 50 μM. The method, then:
For that, we treated PC-3 and LNCaP cells with 25 μM and 50 μM of compound 8c for 24 h and performed cell cycle analysis by flow cytometry using Propidium Iodide (PI). […] It is worthy to note that when PC-3 cells were treated with compound 8c, 80% of cells were in subG0 phase (Fig. 4A).
Figure 4 Cell Cycle analysis in 8c-treated prostate cancer cells. (A) PC-3 and LNCaP cells were treated with compound 8c for 24 hours and cell cycle analysis was analyzed by flow cytometry using Propidium Iodide (PI). Percentage of cells in subG0, G1, S, and G2/M phases is indicated in the histogram. (B) Levels of Cyclin D1, p-p53, p53, p21 and cleaved Caspase 3 (17 kDa fragment) were determined by Western blot. Upper panel, representative Western blot of two different experiments. β-tubulin (β-Tub) serves as a loading control. Lower panel, the densitometric analyses of bands represented as the mean ± SD of the two different experiments. *p < 0.05 and **p < 0.01 compared with the control group by the Student’s t-test.
Flow cytometry was used to detect the distribution of cell cycle. After being cultivated with the treatment, 10^5 cells in 35 mm culture dish were harvested in 0.35% trypsin, collected and fixed with 70% cold ethanol at 4 °C for 1 h. Then, cells were centrifuged at 1500 g for 5 min and incubated in 0.5 ml PBS containing 0.1 mg/ml RNase for 30 min at 37 °C. […]

In the case of `O=C1Nc2ccccc2C1(F)Cc1ccc(-c2ccccc2)o1` (stereo not shown) [Compound 8c, 3-fluoro-3-((5-phenylfuran-2-yl)methyl)indolin-2-one], the “cleaved caspase 3 (17 kDa fragment)” value in experiment [1] was “increase in cleaved caspase 3”. Also, the “AMPK phosphorylation (pAMPK/AMPK)” value in the experiment on AMPK is “stimulate AMPK in DU145 cells”. The p21 protein level result with p21 is on record as “remarkably increase in p21 protein”. Also, in the experiment on LNCaP cells, the subG0 cells entry was “increase in subG0 cells”.
